Laboratory results: US20240327429A1, “[1,3]Thiazolo[4,5-d]-pyrimidon-7-ones as inhibitors of NOX4” (Boehringer Ingelheim International GmbH, priority 2023, published 2024)

Key:
human NOX5 (hNOX5) = molecular target: T1, human NOX5 (hNOX5) (Homo sapiens, UniProt Q96PH1); experiment: NOX5 inhibition assay (L-012), HEK293 cells stably overexpressing human NOX5; assay type: cell-based; settings: HEK293-hNOX5, PMA stimulated
T1 construct: expressed in transfected cells; host or cells: HEK293
T1 sequence (Q96PH1 1-765): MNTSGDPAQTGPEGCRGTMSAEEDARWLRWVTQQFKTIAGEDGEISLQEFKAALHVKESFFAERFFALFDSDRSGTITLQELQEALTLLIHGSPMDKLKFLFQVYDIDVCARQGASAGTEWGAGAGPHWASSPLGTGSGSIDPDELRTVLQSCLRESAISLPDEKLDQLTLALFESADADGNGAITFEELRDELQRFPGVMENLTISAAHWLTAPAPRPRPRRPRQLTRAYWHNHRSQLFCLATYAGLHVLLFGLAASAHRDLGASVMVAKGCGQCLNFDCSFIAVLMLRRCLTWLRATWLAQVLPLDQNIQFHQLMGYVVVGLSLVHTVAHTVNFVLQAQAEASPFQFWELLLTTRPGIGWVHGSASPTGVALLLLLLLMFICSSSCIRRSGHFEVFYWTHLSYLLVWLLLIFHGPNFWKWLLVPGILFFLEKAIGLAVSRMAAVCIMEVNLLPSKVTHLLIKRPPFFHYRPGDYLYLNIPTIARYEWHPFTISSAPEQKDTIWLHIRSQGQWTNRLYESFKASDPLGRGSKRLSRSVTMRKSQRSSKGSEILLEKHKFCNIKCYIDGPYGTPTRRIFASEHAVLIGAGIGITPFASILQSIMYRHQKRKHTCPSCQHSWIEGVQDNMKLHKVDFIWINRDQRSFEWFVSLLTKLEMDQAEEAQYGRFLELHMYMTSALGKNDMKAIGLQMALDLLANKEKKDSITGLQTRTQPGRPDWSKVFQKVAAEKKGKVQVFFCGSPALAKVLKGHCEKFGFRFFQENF
Description: The synthetic gene hNOX5 (Accession: Q96PH1) is cloned into pcDNA3.1_Zeo. […] The final construct is verified by sequencing.
Evaluation of the NOX4 inhibitors on NOX5 activity is assessed in HEK293 cells stably overexpressing human NOX5 (hNOX5).
Cells are seeded in 384 well plates over-night. […] Cells are then stimulated with PMA at 0.1 μM to induce NOX5-dependent ROS production. […] Luminescence is measured with an PHERAstar multimode reader.

human hepatocytes = experiment: Evaluation of hepatocyte clearance (metabolic stability); assay type: in vitro ADME; settings: 1 μM test compound, 5% human serum, Table 3
Description: The metabolic degradation of the test compound is assayed in a hepatocyte suspension. Hepatocytes (cryopreserved) are incubated in Dulbecco's modified eagle medium (supplemented with […] glucagon/500 mL, 2.5 mg insulin/500 mL and 3.75 mg/500 mL hydrocortisone) containing 5% human serum.
Following a 30 min preincubation in an incubator (37° C., 10% CO2) 5 μl of test compound solution (80 μM; from 2 mM in DMSO stock solution diluted 1:25 with medium) are added into 395 μl hepatocyte suspension (cell density in the range 0.25-5 Mio cells/mL, typically 1 Mio cells/mL; final concentration of test compound 1 μM, final DMSO concentration 0.05%).
The cells are incubated for six hours (incubator, orbital shaker) and samples (25 μl) are taken at 0, 0.5, 1, 2, 4 and 6 hours. Samples are transferred into acetonitrile and pelleted by centrifugation (5 min). The supernatant is transferred to a new 96-deepwell plate, evaporated under nitrogen and resuspended.
Decline of Parent Compound is Analyzed by HPLC-MS/MS.
CLint is Calculated as Follows:
CL_[…]=Dose/AUC=(C0/CD)/(AUD+clast/k)×1000/60. • C0: initial concentration in the incubation [μM], CD: cell density of vital cells [10^6 cells/mL], AUD: area under the data [μM×h], clast: concentration of last data point [μM], • k: slope of the regression line for parent decline [h-1].
The calculated in vitro hepatic intrinsic clearance can be scaled up to the intrinsic in vivo hepatic clearance and used to predict hepatic in vivo blood clearance (CL) by the use of a liver model (well stirred model).
CL_[…]_INVIVO[ml/min/kg]=(CL_[…][μL/min/10^6 cells]×hepatocellularity[10^6 cells/g liver]×liver factor[g/kg bodyweight])/1000
CL[ml/min/kg]=CL_[…]_INVIVO[ml/min/kg]×hepatic blood flow[ml/min/kg]/(CL_[…]_INVIVO[ml/min/kg]+hepatic blood flow[ml/min/kg])

NOX2 = molecular target: T2, NOX2 (Homo sapiens, UniProt P04839); experiment: NOX2 inhibition assay (L-012), human blood-derived granulocytes; assay type: cell-based; settings: fMLP/PMA stimulated
T2 construct: endogenous in cells; host or cells: freshly isolated human blood-derived granulocytes
T2 sequence (P04839 2-570 limits assumed): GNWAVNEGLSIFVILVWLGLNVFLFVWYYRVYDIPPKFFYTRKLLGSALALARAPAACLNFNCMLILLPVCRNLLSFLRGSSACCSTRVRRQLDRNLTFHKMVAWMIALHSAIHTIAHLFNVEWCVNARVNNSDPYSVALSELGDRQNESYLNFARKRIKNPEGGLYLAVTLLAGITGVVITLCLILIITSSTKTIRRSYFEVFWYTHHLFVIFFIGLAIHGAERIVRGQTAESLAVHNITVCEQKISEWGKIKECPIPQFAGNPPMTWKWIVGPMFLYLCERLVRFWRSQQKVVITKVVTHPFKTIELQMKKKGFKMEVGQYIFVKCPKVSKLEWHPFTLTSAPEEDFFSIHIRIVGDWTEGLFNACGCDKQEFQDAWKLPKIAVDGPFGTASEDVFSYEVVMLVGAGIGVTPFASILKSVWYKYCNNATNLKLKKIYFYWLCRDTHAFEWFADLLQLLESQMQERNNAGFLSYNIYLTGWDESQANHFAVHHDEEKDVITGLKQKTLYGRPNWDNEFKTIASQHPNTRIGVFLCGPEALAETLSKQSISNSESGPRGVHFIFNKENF
T2 sequence (P13498 2-195 partner limits assumed): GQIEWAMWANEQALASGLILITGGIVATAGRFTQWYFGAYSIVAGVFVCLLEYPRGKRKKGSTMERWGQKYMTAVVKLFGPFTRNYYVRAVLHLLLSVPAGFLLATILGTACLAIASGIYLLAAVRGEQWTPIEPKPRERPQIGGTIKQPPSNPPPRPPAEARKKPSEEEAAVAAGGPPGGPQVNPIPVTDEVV
Description: Evaluation of the NOX4 inhibitors on NOX2 activity is assessed in human blood-derived granulocytes.
Afterwards, freshly isolated granulocytes are added to the wells containing the compounds in assay buffer and incubated for 1 h at 37° C. Next, a solution of Nformylmethionine-leucyl-phenylalanine (fMLP; 730 nM), phorbol myristate acetate (PMA, 100 nM) (stimuli of ROS production) and L-012 (200 μM, ROS indicator) is added to the wells and the cells are incubated for additional 30 mins at 37° C. Afterwards luminescence is measured in a SpectraMax M5 microplate reader.

Row | IC50 (human NOX5 (hNOX5)) | Qh [%] (human hepatocytes) | IC50 (NOX2) | SMILES
1 | > 100 µM | 53% | > 100 µM | O=c1c2scnc2nc(SCc2ccc(Cl)cc2F)n1-c1cc(F)c(O)c(F)c1 [Example 2, 5-((4-Chloro-2-fluorobenzyl)thio)-6-(3,5-difluoro-4-hydroxyphenyl)thiazolo[4,5-d]-pyrimidin-7(6H)-one]
2 | > 100 µM | 41% | > 100 µM | Cc1cc(F)cc(C)c1CSc1nc2ncsc2c(=O)n1-c1cc(F)c(O)c(F)c1 [Example 4]
3 | > 100 µM |  | > 100 µM | O=c1c2scnc2nc(SCc2ccc(C(F)(F)F)cc2F)n1-c1cc(F)c(O)c(F)c1 [Example 6]
4 | > 100 µM | 42% | > 30 µM | O=c1c2scnc2nc(SCc2c(F)cc(F)cc2F)n1-c1cc(F)c(O)c(F)c1 [Example 8]
5 | > 100 µM | 65% | > 100 µM | Cc1cc(F)ccc1CSc1nc2ncsc2c(=O)n1-c1cc(F)c(O)c(F)c1 [Example 9]
6 | 11.5 µM | 72% | > 30 µM | O=c1c2scnc2nc(SCc2c(F)cc(F)cc2F)n1-c1cc(F)c(O)cc1F [Example 10, 6-(2,5-Difluoro-4-hydroxyphenyl)-5-((2,4,6-trifluorobenzyl)thio)thiazolo[4,5-d]pyrimidin-7(6H)-one]
7 | 13 µM | 79% | > 30 µM | O=c1c2scnc2nc(SCc2c(F)cc(F)cc2F)n1-c1ccc(O)c(F)c1 [Example 11]
8 |  | 77% | > 30 µM | O=c1c2scnc2nc(SCc2c(F)cc(F)cc2F)n1-c1ccc(O)c(F)c1F [Example 12]
9 | 5.1 µM |  | 84.6 µM | O=c1c2scnc2nc(SCc2c(F)cc(F)cc2F)n1-c1c(F)cc(O)cc1F [Example 13]
10 | 10.2 µM | 73% | 13.4 µM | O=c1c2scnc2nc(SCc2c(F)cc(F)cc2F)n1-c1ccc(O)cc1F [Example 14]
11 | 59 µM | 61% | 10.3 µM | O=c1c2scnc2nc(SCc2c(F)cc(F)cc2F)n1-c1ccc(O)cc1 [Example 15]
12 | 36 µM | 73% | > 100 µM | O=c1c2scnc2nc(SCc2c(F)cc(F)cc2F)n1-c1ccc(O)c(Cl)c1 [Example 16]
13 | 17.5 µM | 70% |  | O=c1c2scnc2nc(SCc2c(F)cc(F)cc2F)n1-c1ccc(O)cc1Cl [Example 17]
14 | > 100 µM | 48% | > 30 µM | N#Cc1cc(-n2c(SCc3c(F)cc(F)cc3F)nc3ncsc3c2=O)ccc1O [Example 18]
15 | > 100 µM | 52% | 48.1 µM | O=c1c2scnc2nc(SCc2c(F)cc(F)cc2F)n1-c1ccc(O)cn1 [Example 19]
16 | 32.7 µM | 51% | > 100 µM | O=c1c2scnc2nc(SCc2c(F)cc(F)cc2F)n1-c1cc(F)c(O)cn1 [Example 20]
17 | > 100 µM | 27% | > 100 µM | O=c1c2scnc2nc(SCc2c(F)cc(F)cc2F)n1-c1ncc(O)cn1 [Example 21, 6-(5-Hydroxypyrimidin-2-yl)-5-((2,4,6-trifluorobenzyl)thio)thiazolo[4,5-d]pyrimidin-7(6H)-one]
18 | > 100 µM | 29% | > 30 µM | O=c1c2scnc2nc(SCc2c(F)cc(F)cc2F)n1-c1ccc(O)nc1 [Example 28]

More lines, now with the values behind:

Row | SMILES | IC50 (human NOX5 (hNOX5)) | Qh [%] (human hepatocytes) | IC50 (NOX2)
19 | Cc1cc(Cl)ccc1CSc1nc2ncsc2c(=O)n1-c1cc(F)c(O)c(F)c1 [Example 3] | > 100 µM |  | > 100 µM
20 | O=c1c2scnc2nc(SCc2ccc(Cl)cc2)n1-c1cc(F)c(O)c(F)c1 [Example 5] | > 100 µM | 56% | > 100 µM
21 | O=c1c2scnc2nc(SCc2ccc(C(F)(F)F)cc2)n1-c1cc(F)c(O)c(F)c1 [Example 7] | > 100 µM | 55% | > 100 µM
22 | O=c1c2scnc2nc(SCc2ccc(Cl)cc2F)n1-c1ccc(O)nc1 [Example 22, 5-((4-Chloro-2-fluorobenzyl)thio)-6-(6-hydroxypyridin-3-yl)thiazolo[4,5-d]pyrimidin-7(6H)-one] | > 100 µM | 45% | > 30 µM
23 | Cc1cc(Cl)ccc1CSc1nc2ncsc2c(=O)n1-c1ccc(O)nc1 [Example 23] | > 100 µM | 55% | > 100 µM
24 | Cc1cc(F)cc(C)c1CSc1nc2ncsc2c(=O)n1-c1ccc(O)nc1 [Example 24] | > 100 µM | 45% | 10.3 µM
25 | O=c1c2scnc2nc(SCc2ccc(Cl)cc2)n1-c1ccc(O)nc1 [Example 25] | > 100 µM | 41% | > 100 µM
26 | O=c1c2scnc2nc(SCc2ccc(C(F)(F)F)cc2F)n1-c1ccc(O)nc1 [Example 26] | 57.4 µM | 41% | > 100 µM
27 | O=c1c2scnc2nc(SCc2ccc(C(F)(F)F)cc2)n1-c1ccc(O)nc1 [Example 27] | 93.3 µM | 37% | > 100 µM
28 | Cc1cc(F)ccc1CSc1nc2ncsc2c(=O)n1-c1ccc(O)nc1 [Example 29] | > 100 µM | 54% | 36.9 µM
29 | Cc1c(F)cccc1CSc1nc2ncsc2c(=O)n1-c1cnc(O)c(F)c1 [Example 40] | 56.3 µM |  | > 100 µM
30 | Cc1cc(F)cc(C)c1CSc1nc2ncsc2c(=O)n1-c1ccc(O)nn1 [Example 63] | > 100 µM |  | 46 µM
31 | Cc1cc(F)ccc1CSc1nc2ncsc2c(=O)n1-c1ccc(O)nn1 [Example 68] | > 100 µM |  | > 100 µM
